# Results reported in US7700593B2, “Imidazo- and triazolo-pyridine compounds and methods of use thereof” (Amgen Inc., priority 2006, dated 2010).
# Where two headings read alike, the source gives them in different places.
# Columns and labels:
# p38α = p38α (Homo sapiens, UniProt Q16539); test: p38 in-vitro HTRF enzyme assay; type: biochemical; conditions: IC50 value ranges
# In short: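 Activated recombinant human p38α with ATP and 100 nM GST-ATF2-Avitag, 1 h at RT in Tris pH 7.5/MgCl2 buffer; compound 10-point 3-fold series from about 1 μM final. HTRF 665/620 nm ratio; IC50 from 4-parameter fit, Ki via Cheng-Prusoff with experimental ATP Km.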
# THP1 cells = test: Lipopolysaccharide-activated THP1 cell TNF production assay; type: cell-based, human; conditions: LPS-induced TNF-α production in THP1 cells
# In short: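 THP1 cells at 1E6/mL were stimulated with LPS (1 μg/mL prepared stock) alongside 3-fold serially diluted compound for 3 h at 37 °C. Secreted TNF-α was quantified by electrochemiluminescence sandwich immunoassay. Percent of DMSO control was fitted to a 4-parameter logistic equation.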
# monocytes = test: Lipopolysaccharide-activated monocyte TNF production assay (LPS induced TNF release); type: cell-based, human; conditions: LPS induced TNF release from monocytes, read-out: LPS induced TNFa
# In short: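 Adherent monocytes from human PBMCs were pretreated with compound 60 min, then stimulated with E. coli LPS (30 ng/mL stock added) for 4 h at 37 °C. Supernatant TNF-α measured by sandwich ELISA; concentration giving 50% TNF reduction derived by polynomial fit.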
# Chain of p38α (Q16539 whole entry): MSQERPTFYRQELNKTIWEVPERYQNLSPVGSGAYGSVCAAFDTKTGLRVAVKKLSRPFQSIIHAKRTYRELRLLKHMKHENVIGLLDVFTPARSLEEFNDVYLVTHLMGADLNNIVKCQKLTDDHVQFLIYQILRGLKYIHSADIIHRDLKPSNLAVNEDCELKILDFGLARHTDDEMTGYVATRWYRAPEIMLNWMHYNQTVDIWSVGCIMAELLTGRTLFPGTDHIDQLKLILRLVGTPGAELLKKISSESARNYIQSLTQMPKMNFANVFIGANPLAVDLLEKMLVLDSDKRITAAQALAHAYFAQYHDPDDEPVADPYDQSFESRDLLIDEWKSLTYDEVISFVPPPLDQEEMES
IC50 (p38α),"IC50 (THP1 cells; Homo sapiens, THP-1)","IC50 (monocytes; Homo sapiens, Monocyte)",IC50 (THP1 cells; read-out: THP-1 cell assay),IC50 (monocytes),Molecule
< 0.025 µM,< 0.025 µM,0.025 to 0.1 µM,–,–,"Cc1ccc(C(=O)NC2CC2)cc1-c1ccn2c(-c3sccc3Cl)nnc2c1 [Example 55, 3-(3-(3-chloro-2-thienyl)[1,2,4]triazolo[4,3-a]pyridin-7-yl)-N-cyclopropyl-4-methylbenzamide]"
< 0.025 µM,0.1 to 0.25 µM,0.1 to 0.25 µM,–,–,"Cc1ncoc1-c1nnc2cc(-c3cc(C(=O)NC4CC4)cc(F)c3C)ccn12 [Example 60, N-cyclopropyl-3-fluoro-4-methyl-5-(3-(4-methyl-1,3-oxazol-5-yl)[1,2,4]triazolo[4,3-a]pyridin-7-yl)benzamide]"
0.025 to 0.1 µM,–,–,0.25 to 1 µM,0.25 to 1 µM,"4-methyl-3-(3-(4-methyl-1,3-oxazol-5-yl)[1,2,4]triazolo[4,3-a]pyridin-7-yl)-N-(1-methyl-1H-pyrazol-5-yl)benzamide [Example 58]"
< 0.025 µM,< 0.025 µM,0.025 to 0.1 µM,–,–,"Cc1ccc(C(=O)Nc2ccnn2C)cc1-c1cc2nnc(-c3ccccc3Cl)n2cc1C [Example 36, 3-(3-(2-chlorophenyl)-6-methyl[1,2,4]triazolo[4,3-a]pyridin-7-yl)-4-methyl-N-(1-methyl-1H-pyrazol-5-yl)benzamide]"
< 0.025 µM,< 0.025 µM,0.025 to 0.1 µM,–,–,"Cc1ccc(C(=O)Nc2ccnn2C)cc1-c1ccn2c(-c3cc(F)ccc3Cl)nnc2c1 [Example 47, 3-(3-(2-chloro-5-fluorophenyl)[1,2,4]triazolo[4,3-a]pyridin-7-yl)-4-methyl-N-(1-methyl-1H-pyrazol-5-yl)benzamide]"
0.025 to 0.1 µM,0.25 to 1 µM,0.25 to 1 µM,–,–,"Cc1ccc(C(=O)NC2CC2)cc1-c1ccn2c(-c3ocnc3C)nnc2c1 [Example 57, N-cyclopropyl-4-methyl-3-(3-(4-methyl-1,3-oxazol-5-yl)[1,2,4]triazolo[4,3-a]pyridin-7-yl)benzamide]"
< 0.025 µM,0.1 to 0.25 µM,1 to 5 µM,–,–,"Cc1ccc(C(=O)Nc2ccnn2C)cc1-c1ccn2c(-c3cc(F)cc(F)c3)ncc2c1 [Example 8, 3-(3-(3,5-difluorophenyl)imidazo[1,5-a]pyridin-7-yl)-4-methyl-N-(1-methyl-1H-pyrazol-5-yl)benzamide]"
< 0.025 µM,0.025 to 0.1 µM,0.025 to 0.1 µM,–,–,"Cc1ccc(C(=O)NC2(C)CC2)cc1-c1ccn2c(-c3ccccc3Cl)nnc2c1 [Example 11, 3-(3-(2-chlorophenyl)[1,2,4]triazolo[4,3-a]pyridin-7-yl)-4-methyl-N-(1-methylcyclopropyl)benzamide]"
< 0.025 µM,0.1 to 0.25 µM,0.1 to 0.25 µM,–,–,"CCNC(=O)c1ccc(C)c(-c2ccn3c(-c4ccccc4Cl)nnc3c2)c1 [Example 52, 3-(3-(2-chlorophenyl)[1,2,4]triazolo[4,3-a]pyridin-7-yl)-N-ethyl-4-methylbenzamide]"
< 0.025 µM,< 0.025 µM,0.025 to 0.1 µM,–,–,"Cc1ccc(C(=O)NC2CC2)cc1-c1ccn2c(-c3ccncc3Cl)nnc2c1 [Example 80, 3-(3-(3-chloro-4-pyridinyl)[1,2,4]triazolo[4,3-a]pyridin-7-yl)-N-cyclopropyl-4-methylbenzamide]"
1 to 5 µM,1 to 5 µM,1 to 5 µM,–,–,"Cc1ccc(C(N)=O)cc1-c1ccn2c(N)nnc2c1 [Example 24, 3-(3-amino[1,2,4]triazolo[4,3-a]pyridin-7-yl)-4-methylbenzamide]"
< 0.025 µM,0.025 to 0.1 µM,0.025 to 0.1 µM,–,–,"Cc1ccc(C(=O)Nc2ccnn2C)cc1-c1ccn2c(-c3cnccc3C(F)(F)F)ncc2c1 [Example 4, 4-methyl-N-(1-methyl-1H-pyrazol-5-yl)-3-(3-(4-(trifluoromethyl)-3-pyridinyl)imidazo[1,5-a]pyridin-7-yl)benzamide]"
< 0.025 µM,0.025 to 0.1 µM,0.1 to 0.25 µM,–,–,"Cc1ccc(C(=O)NC2CC2)cc1-c1ccn2c(C3CC3)nnc2c1 [Example 93, N-cyclopropyl-3-(3-cyclopropyl[1,2,4]triazolo[4,3-a]pyridin-7-yl)-4-methylbenzamide]"
0.25 to 1 µM,1 to 5 µM,> 5 µM,–,–,"Cc1cc(Cl)c(C(=O)NC2CC2)cc1-c1ccn2c(-c3ccccc3Cl)nnc2c1 [Example 90, 2-chloro-5-(3-(2-chlorophenyl)[1,2,4]triazolo[4,3-a]pyridin-7-yl)-N-cyclopropyl-4-methylbenzamide]"
< 0.025 µM,< 0.025 µM,< 0.025 µM,–,–,"Cc1ccc(C(=O)NC2CC2)cc1-c1ccn2c(-c3c(F)cccc3Cl)nnc2c1 [Example 63, 3-(3-(2-chloro-6-fluorophenyl)[1,2,4]triazolo[4,3-a]pyridin-7-yl)-N-cyclopropyl-4-methylbenzamide]"
< 0.025 µM,0.025 to 0.1 µM,0.025 to 0.1 µM,–,–,"Cc1ccc(C(=O)NC2CC2)cc1-c1ccn2c(-c3ccc(F)cc3C)ncc2c1 [Example 22, N-cyclopropyl-3-(3-(4-fluoro-2-methylphenyl)imidazo[1,5-a]pyridin-7-yl)-4-methylbenzamide]"
< 0.025 µM,0.025 to 0.1 µM,0.1 to 0.25 µM,–,–,"Cc1ccc(C(=O)NC2CC2)cc1-c1ccn2c(-c3ccc(F)cc3Cl)nnc2c1 [Example 42, 3-(3-(2-chloro-4-fluorophenyl)[1,2,4]triazolo[4,3-a]pyridin-7-yl)-N-cyclopropyl-4-methylbenzamide]"
< 0.025 µM,0.025 to 0.1 µM,0.25 to 1 µM,–,–,"Cc1ccc(C(=O)NC2CC2)cc1-c1ccn2c(N3CCCC3)nnc2c1 [Example 96, N-cyclopropyl-4-methyl-3-(3-(1-pyrrolidinyl)[1,2,4]triazolo[4,3-a]pyridin-7-yl)benzamide]"
< 0.025 µM,0.025 to 0.1 µM,0.025 to 0.1 µM,–,–,"Cc1ccc(C(=O)Nc2ccnn2C)cc1-c1ccn2c(-c3cc(F)c(F)cc3Cl)nnc2c1 [Example 49, 3-(3-(2-chloro-4,5-difluorophenyl)[1,2,4]triazolo[4,3-a]pyridin-7-yl)-4-methyl-N-(1-methyl-1H-pyrazol-5-yl)benzamide]"
< 0.025 µM,< 0.025 µM,< 0.025 µM,–,–,"Cc1c(F)cc(C(=O)Nc2ccon2)cc1-c1ccn2c(-c3c(F)cccc3F)nnc2c1 [Example 92, 3-(3-(2,6-difluorophenyl)[1,2,4]triazolo[4,3-a]pyridin-7-yl)-5-fluoro-N-3-isoxazolyl-4-methylbenzamide]"
< 0.025 µM,0.025 to 0.1 µM,0.25 to 1 µM,–,–,"Cc1ccc(C(=O)NC2CC2)cc1-c1ccn2c(N(C)c3ccccc3)nnc2c1 [Example 75, N-cyclopropyl-4-methyl-3-(3-(methyl(phenyl)amino)[1,2,4]triazolo[4,3-a]pyridin-7-yl)benzamide]"
0.025 to 0.1 µM,1 to 5 µM,1 to 5 µM,–,–,"Cc1ccc(C(=O)Nc2ccnn2C)cc1-c1ccn2c(-c3ccc(S(C)(=O)=O)cc3)nnc2c1 [Example 14, 4-methyl-N-(1-methyl-1H-pyrazol-5-yl)-3-(3-(4-(methylsulfonyl)phenyl)[1,2,4]triazolo[4,3-a]pyridin-7-yl)benzamide]"
< 0.025 µM,< 0.025 µM,< 0.025 µM,–,–,"Cc1cccc(Cl)c1-c1nnc2cc(-c3cc(C(=O)NC4CC4)cc(F)c3C)ccn12 [Example 91, 3-(3-(2-chloro-6-methylphenyl)[1,2,4]triazolo[4,3-a]pyridin-7-yl)-N-cyclopropyl-5-fluoro-4-methylbenzamide]"
